Results taken from paper PMC10416764, “Crystal structure of Prp16 in complex with ADP” (Acta Crystallographica. Section F, Structural Biology …, 2023).

Biological target: T1, ctPrp16 (302-920) (Thermochaetoides thermophila, UniProt G0S0F9)
T1 construct: gene CTHT_0009880; residues 302-920 (RecA1, RecA2, WH, HB, OB-fold); N- and C-terminally truncated; codon-optimized gene, E. coli Rosetta2 (DE3), pGEX-6P-3, GST tag cleaved by PreScission; one molecule per asymmetric unit
T1 sequence (G0S0F9 301-920 limits assumed): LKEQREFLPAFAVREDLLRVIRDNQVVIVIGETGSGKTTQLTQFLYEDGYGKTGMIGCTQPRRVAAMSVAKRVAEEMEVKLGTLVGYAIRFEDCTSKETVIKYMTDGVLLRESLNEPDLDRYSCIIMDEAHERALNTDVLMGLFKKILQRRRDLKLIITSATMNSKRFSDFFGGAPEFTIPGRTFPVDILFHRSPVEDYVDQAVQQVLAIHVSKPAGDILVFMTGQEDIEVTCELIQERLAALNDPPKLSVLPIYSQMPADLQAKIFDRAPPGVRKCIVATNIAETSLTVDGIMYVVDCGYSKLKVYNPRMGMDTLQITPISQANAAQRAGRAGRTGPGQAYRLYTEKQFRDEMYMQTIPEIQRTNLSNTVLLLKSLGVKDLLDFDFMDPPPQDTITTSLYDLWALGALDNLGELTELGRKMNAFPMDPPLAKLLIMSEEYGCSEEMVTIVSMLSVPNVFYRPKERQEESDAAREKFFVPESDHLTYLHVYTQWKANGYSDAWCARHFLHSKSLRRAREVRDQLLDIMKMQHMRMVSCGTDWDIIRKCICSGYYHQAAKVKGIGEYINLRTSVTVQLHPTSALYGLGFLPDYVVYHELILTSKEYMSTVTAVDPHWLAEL
Assay: X-ray crystallography, […] A, co-crystallization
Type: binding
Settings: Mg2+ bound; MES pH 6.5; 293 K; tenfold molar excess of ADP; nucleotide site between RecA1 and RecA2

SMILES: Nc1ncnc2c1ncn2[C@@H]1O[C@H](COP(=O)(O)OP(=O)(O)O)[C@@H](O)[C@H]1O [ADP]
- X-ray crystallography, 1.9 A, co-crystallization: The polder omit map clearly reveals the presence of ADP and a magnesium ion
